Results: patent US10584128B2, “Bicyclic dihydropyrimidine-carboxamide derivatives as Rho-Kinase inhibitors” (CHIESI FARMACEUTICI S.p.A., priority 2016, dated 2020)

Key:
Rho kinase 1 = Rho kinase 1 (Homo sapiens, UniProt Q13464); test: In vitro Rho kinase inhibitory activity assay (ADP-Glo kit, Myelin Basic Protein substrate); type: biochemical; conditions: 10 μM ATP, 25° C., read-out: ROCK1 inhibitory activity (Ki, range of activity)
In short: (§1)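 First, compound was incubated with either Rho kinase isoform for 30 mins at 25 °C; next, ATP was added to 10 μM final with 2.5 μM Myelin Basic Protein substrate; after 1 hour, ADP formed was detected by ADP-Glo luminescence. Dose-response data yielded IC50, converted to Ki using Cheng-Prusoff.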

Rho kinase 2 = Rho kinase 2 (Homo sapiens, UniProt O75116); test: as above; type: biochemical; conditions: 10 μM ATP, 25° C., read-out: ROCK2 inhibitory activity (Ki, range of activity)
Sequence of Rho kinase 2 (O75116 whole entry): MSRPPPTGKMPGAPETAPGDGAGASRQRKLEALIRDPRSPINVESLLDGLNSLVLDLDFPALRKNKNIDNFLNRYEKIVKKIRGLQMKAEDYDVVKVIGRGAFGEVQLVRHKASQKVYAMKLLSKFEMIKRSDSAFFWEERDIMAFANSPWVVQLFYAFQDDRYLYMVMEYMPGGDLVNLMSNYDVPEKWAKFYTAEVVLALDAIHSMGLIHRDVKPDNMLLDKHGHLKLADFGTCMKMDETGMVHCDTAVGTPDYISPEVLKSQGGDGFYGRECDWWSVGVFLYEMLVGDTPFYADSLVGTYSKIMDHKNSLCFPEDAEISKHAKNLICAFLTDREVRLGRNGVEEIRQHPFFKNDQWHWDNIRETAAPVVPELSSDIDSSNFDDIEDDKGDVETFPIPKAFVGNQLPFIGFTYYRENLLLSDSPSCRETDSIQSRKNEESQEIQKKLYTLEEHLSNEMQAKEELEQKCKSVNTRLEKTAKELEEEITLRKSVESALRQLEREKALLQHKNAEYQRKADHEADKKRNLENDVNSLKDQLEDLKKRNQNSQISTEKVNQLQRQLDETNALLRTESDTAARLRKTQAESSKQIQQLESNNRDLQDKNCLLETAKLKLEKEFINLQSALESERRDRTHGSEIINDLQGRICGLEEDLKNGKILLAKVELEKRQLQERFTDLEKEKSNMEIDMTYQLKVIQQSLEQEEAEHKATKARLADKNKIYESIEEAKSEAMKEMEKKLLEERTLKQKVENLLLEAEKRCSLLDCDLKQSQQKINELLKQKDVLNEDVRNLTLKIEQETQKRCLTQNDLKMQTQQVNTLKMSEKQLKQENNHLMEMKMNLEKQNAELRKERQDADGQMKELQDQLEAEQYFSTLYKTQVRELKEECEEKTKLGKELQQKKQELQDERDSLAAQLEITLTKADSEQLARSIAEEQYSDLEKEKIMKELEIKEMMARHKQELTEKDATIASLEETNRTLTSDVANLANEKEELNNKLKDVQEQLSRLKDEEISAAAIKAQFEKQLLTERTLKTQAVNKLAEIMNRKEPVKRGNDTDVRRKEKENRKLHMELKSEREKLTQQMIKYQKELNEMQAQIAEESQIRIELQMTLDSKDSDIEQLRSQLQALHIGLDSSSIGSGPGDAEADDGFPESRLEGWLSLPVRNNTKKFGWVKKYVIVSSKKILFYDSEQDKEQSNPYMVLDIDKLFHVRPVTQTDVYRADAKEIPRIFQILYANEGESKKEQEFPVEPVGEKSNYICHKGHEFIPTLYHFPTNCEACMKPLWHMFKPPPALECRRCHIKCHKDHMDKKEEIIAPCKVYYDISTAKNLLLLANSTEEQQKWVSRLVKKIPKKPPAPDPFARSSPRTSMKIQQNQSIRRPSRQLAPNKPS
In short: as §1

Sequence of Rho kinase 1 (Q13464 whole entry, canonical isoform): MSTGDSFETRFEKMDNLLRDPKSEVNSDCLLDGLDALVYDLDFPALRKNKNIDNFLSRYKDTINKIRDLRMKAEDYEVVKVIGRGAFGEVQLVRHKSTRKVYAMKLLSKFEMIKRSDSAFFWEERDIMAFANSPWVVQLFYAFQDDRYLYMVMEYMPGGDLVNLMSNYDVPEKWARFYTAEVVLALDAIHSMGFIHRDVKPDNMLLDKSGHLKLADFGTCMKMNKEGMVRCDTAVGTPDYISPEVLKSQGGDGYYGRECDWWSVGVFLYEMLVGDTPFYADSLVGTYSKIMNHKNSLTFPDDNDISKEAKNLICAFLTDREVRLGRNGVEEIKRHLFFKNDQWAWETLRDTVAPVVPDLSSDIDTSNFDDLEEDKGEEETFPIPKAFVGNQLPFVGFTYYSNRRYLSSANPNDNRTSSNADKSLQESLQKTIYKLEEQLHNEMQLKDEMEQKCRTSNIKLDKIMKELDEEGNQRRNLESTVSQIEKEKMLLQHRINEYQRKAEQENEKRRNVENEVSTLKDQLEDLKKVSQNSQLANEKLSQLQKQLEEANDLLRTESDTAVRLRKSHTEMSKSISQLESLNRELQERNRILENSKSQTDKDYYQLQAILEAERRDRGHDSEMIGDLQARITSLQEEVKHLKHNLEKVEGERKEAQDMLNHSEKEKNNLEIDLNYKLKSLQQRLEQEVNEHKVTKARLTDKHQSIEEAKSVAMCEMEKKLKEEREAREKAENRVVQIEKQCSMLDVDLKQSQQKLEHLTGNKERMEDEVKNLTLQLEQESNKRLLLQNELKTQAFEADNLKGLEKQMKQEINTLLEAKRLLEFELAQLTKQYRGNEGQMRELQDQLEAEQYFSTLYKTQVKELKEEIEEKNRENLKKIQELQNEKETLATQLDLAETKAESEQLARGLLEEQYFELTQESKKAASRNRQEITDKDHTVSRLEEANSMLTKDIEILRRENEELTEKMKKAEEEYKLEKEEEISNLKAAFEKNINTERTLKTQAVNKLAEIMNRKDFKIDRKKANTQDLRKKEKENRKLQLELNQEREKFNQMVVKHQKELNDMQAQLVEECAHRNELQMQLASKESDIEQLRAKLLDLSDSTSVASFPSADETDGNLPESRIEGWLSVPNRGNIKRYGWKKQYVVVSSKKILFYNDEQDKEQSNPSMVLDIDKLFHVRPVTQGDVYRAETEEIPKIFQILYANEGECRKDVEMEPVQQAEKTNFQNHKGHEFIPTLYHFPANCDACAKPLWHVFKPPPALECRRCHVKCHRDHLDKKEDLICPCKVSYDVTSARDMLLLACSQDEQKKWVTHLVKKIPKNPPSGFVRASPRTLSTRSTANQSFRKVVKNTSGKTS

| Compound | Ki (Rho kinase 1) | Ki (Rho kinase 2) |
| --- | --- | --- |
| CC1=C(C(=O)Nc2ccc3cnccc3c2)C(c2ccc(C)cc2)n2nc(CO)cc2N1 (centres unmarked) [Example 66, 2-(hydroxymethyl)-N-(isoquinolin-6-yl)-5-methyl-7-(p-tolyl)-4,7-dihydropyrazolo[1,5-a]pyrimidine-6-carboxamide] | < 50 nM | < 50 nM |
| CC1=C(C(=O)Nc2ccc3[nH]ncc3c2)C(c2ccc(C)cc2)n2nc(CO)cc2N1 (centres unmarked) [Example 67, 2-(hydroxymethyl)-N-(1H-indazol-5-yl)-5-methyl-7-(p-tolyl)-4,7-dihydropyrazolo[1,5-a]pyrimidine-6-carboxamide] | < 50 nM | < 50 nM |
| CC1=C(C(=O)Nc2ccc3[nH]ncc3c2)C(c2ccc(Cl)cc2F)n2nc(CO)cc2N1 (centres unmarked) [Example 68, 7-(4-chloro-2-fluorophenyl)-2-(hydroxymethyl)-N-(1H-indazol-5-yl)-5-methyl-4,7-dihydropyrazolo[1,5-a]pyrimidine-6-carboxamide] | < 50 nM | < 50 nM |
| CC1=C(C(=O)Nc2ccc3[nH]ncc3c2)C(c2ccc(Cl)nc2)n2nc(CO)cc2N1 (centres unmarked) [Example 70, 7-(6-chloropyridin-3-yl)-2-(hydroxymethyl)-N-(1H-indazol-5-yl)-5-methyl-4,7-dihydropyrazolo[1,5-a]pyrimidine-6-carboxamide] | < 50 nM | < 50 nM |
| CC1=C(C(=O)Nc2ccc3[nH]ncc3c2)C(c2ccc(C(F)(F)F)cc2)n2nc(C(=O)O)cc2N1 (centres unmarked) [Example 73, 6-((1H-indazol-5-yl)carbamoyl)-5-methyl-7-(4-(trifluoromethyl)phenyl)-4,7-dihydropyrazolo[1,5-a]pyrimidine-2-carboxylic acid] | < 50 nM | < 50 nM |
| CC1=C(C(=O)Nc2ccc3[nH]ncc3c2)C(c2ccc(C)cc2)n2nc(C(=O)O)cc2N1 (centres unmarked) [Example 74, 6-((1H-indazol-5-yl)carbamoyl)-5-methyl-7-(p-tolyl)-4,7-dihydropyrazolo[1,5-a]pyrimidine-2-carboxylic acid] | < 50 nM | < 50 nM |
| CC1=C(C(=O)Nc2ccc3[nH]ncc3c2)C(c2ccc(F)cc2)n2nc(C(=O)O)cc2N1 (centres unmarked) [Example 75, 6-((1H-indazol-5-yl)carbamoyl)-7-(4-fluorophenyl)-5-methyl-4,7-dihydropyrazolo[1,5-a]pyrimidine-2-carboxylic acid] | < 50 nM | < 50 nM |
| CC1=C(C(=O)Nc2ccc3[nH]ncc3c2)C(c2ccc(C(F)(F)F)cc2)n2nc(C(=O)N3CCN(C)CC3)cc2N1 (centres unmarked) [Example 76, N-(1H-indazol-5-yl)-5-methyl-2-(4-methylpiperazine-1-carbonyl)-7-(4-(trifluoromethyl)phenyl)-4,7-dihydropyrazolo[1,5-a]pyrimidine-6-carboxamide] | < 50 nM | < 50 nM |
| CC1=C(C(=O)Nc2ccc3cnccc3c2)C(c2ccc(C(F)(F)F)c(F)c2)n2nc(C(=O)NCCN3CCCCC3)cc2N1 (centres unmarked) [Example 77, 7-(3-fluoro-4-(trifluoromethyl)phenyl)-N6-(isoquinolin-6-yl)-5-methyl-N2-(2-(piperidin-1-yl)ethyl)-4,7-dihydropyrazolo[1,5-a]pyrimidine-2,6-dicarboxamide] | < 50 nM | < 50 nM |
| CC1=C(C(=O)Nc2ccc3cnccc3c2)C(c2ccc(C(F)(F)F)c(F)c2)n2nc(C(=O)NCCN(C)C)cc2N1 (centres unmarked) [Example 79, N2-(2-(dimethylamino)ethyl)-7-(3-fluoro-4-(trifluoromethyl)phenyl)-N6-(isoquinolin-6-yl)-5-methyl-4,7-dihydropyrazolo[1,5-a]pyrimidine-2,6-dicarboxamide] | < 50 nM | < 50 nM |
| CC1=C(C(=O)Nc2ccc3cnccc3c2)C(c2ccc(C(F)(F)F)c(F)c2)n2nc(C(=O)N(C)CCN(C)C)cc2N1 (centres unmarked) [Example 80, N2-(2-(dimethylamino)ethyl)-7-(3-fluoro-4-(trifluoromethyl)phenyl)-N6-(isoquinolin-6-yl)-N2,5-dimethyl-4,7-dihydropyrazolo[1,5-a]pyrimidine-2,6-dicarboxamide] | < 50 nM | < 50 nM |
| CC1=C(C(=O)Nc2ccc3cnccc3c2)C(c2ccc(C(F)(F)F)c(F)c2)n2nc(C(=O)NCCN3CCN(C)CC3)cc2N1 (centres unmarked) [Example 81, 7-(3-fluoro-4-(trifluoromethyl)phenyl)-N6-(isoquinolin-6-yl)-5-methyl-N2-(2-(4-methylpiperazin-1-yl)ethyl)-4,7-dihydropyrazolo[1,5-a]pyrimidine-2,6-dicarboxamide] | < 50 nM | < 50 nM |
| CC1=C(C(=O)Nc2ccc3cnccc3c2)C(c2ccc(C(F)(F)F)c(F)c2)n2nc(C(=O)NCCN3CCOCC3)cc2N1 (centres unmarked) [Example 82, 7-(3-fluoro-4-(trifluoromethyl)phenyl)-N6-(isoquinolin-6-yl)-5-methyl-N2-(2-morpholinoethyl)-4,7-dihydropyrazolo[1,5-a]pyrimidine-2,6-dicarboxamide] | < 50 nM | < 50 nM |
| CC1=C(C(=O)Nc2ccc3cnccc3c2)C(c2ccc(C(F)(F)F)c(F)c2)n2nc(C(=O)N(C)CCN3CCOCC3)cc2N1 (centres unmarked) [Example 83, 7-(3-fluoro-4-(trifluoromethyl)phenyl)-N6-(isoquinolin-6-yl)-N2,5-dimethyl-N2-(2-morpholinoethyl)-4,7-dihydropyrazolo[1,5-a]pyrimidine-2,6-dicarboxamide] | < 50 nM | < 50 nM |
| CC1=C(C(=O)Nc2ccc3cnccc3c2)C(c2ccc(C(F)(F)F)c(F)c2)n2nc(C(=O)NCC3CCN(C)CC3)cc2N1 (centres unmarked) [Example 84, 7-(3-fluoro-4-(trifluoromethyl)phenyl)-N6-(isoquinolin-6-yl)-5-methyl-N2-((1-methylpiperidin-4-yl)methyl)-4,7-dihydropyrazolo[1,5-a]pyrimidine-2,6-dicarboxamide] | < 50 nM | < 50 nM |

The next lines start with the values.

| Ki (Rho kinase 1) | Ki (Rho kinase 2) | Compound |
| --- | --- | --- |
| < 50 nM | < 50 nM | CC1=C(C(=O)Nc2ccc3cnccc3c2)C(c2ccc(C(F)(F)F)c(F)c2)n2nc(C(=O)N(C)CC3CCN(C)CC3)cc2N1 (centres unmarked) [Example 85, 7-(3-fluoro-4-(trifluoromethyl)phenyl)-N6-(isoquinolin-6-yl)-N2,5-dimethyl-N2-((1-methylpiperidin-4-yl)methyl)-4,7-dihydropyrazolo[1,5-a]pyrimidine-2,6-dicarboxamide] |
| < 50 nM | < 50 nM | CC1=C(C(=O)Nc2ccc3cnccc3c2)C(c2ccc(C(F)(F)F)c(F)c2)n2nc(C(=O)N3C[C@H]4CN(C)C[C@H]4C3)cc2N1 (some centres unmarked) [Example 86, 7-(3-fluoro-4-(trifluoromethyl)phenyl)-N-(isoquinolin-6-yl)-5-methyl-2-(5-methyloctahydropyrrolo[3,4-c]pyrrole-2-carbonyl)-4,7-dihydropyrazolo[1,5-a]pyrimidine-6-carboxamide] |
| < 50 nM | < 50 nM | CC1=C(C(=O)Nc2ccc3cnccc3c2)C(c2ccc(C(F)(F)F)c(F)c2)n2nc(C(=O)N3CCC(N(C)C)CC3)cc2N1 (centres unmarked) [Example 87, 2-(4-(dimethylamino)piperidine-1-carbonyl)-7-(3-fluoro-4-(trifluoromethyl)phenyl)-N-(isoquinolin-6-yl)-5-methyl-4,7-dihydropyrazolo[1,5-a]pyrimidine-6-carboxamide] |
| < 50 nM | < 50 nM | CC1=C(C(=O)Nc2ccc3cnccc3c2)C(c2ccc(C(F)(F)F)c(F)c2)n2nc(C(=O)N(C)C3CCN(C)CC3)cc2N1 (centres unmarked) [Example 88, 7-(3-fluoro-4-(trifluoromethyl)phenyl)-N6-(isoquinolin-6-yl)-N2,5-dimethyl-N2-(1-methylpiperidin-4-yl)-4,7-dihydropyrazolo[1,5-a]pyrimidine-2,6-dicarboxamide] |
| < 50 nM | < 50 nM | CC1=C(C(=O)Nc2ccc3cnccc3c2)C(c2ccc(C(F)(F)F)c(F)c2)n2nc(C(=O)N(C)CCCN(C)C)cc2N1 (centres unmarked) [Example 89, N2-(3-(dimethylamino)propyl)-7-(3-fluoro-4-(trifluoromethyl)phenyl)-N6-(isoquinolin-6-yl)-N2,5-dimethyl-4,7-dihydropyrazolo[1,5-a]pyrimidine-2,6-dicarboxamide] |
| < 50 nM | < 50 nM | CC1=C(C(=O)Nc2ccc3[nH]ncc3c2)C(c2ccc(F)cc2)n2nc(C(=O)N3CCOCC3)cc2N1 (centres unmarked) [Example 90, 7-(4-fluorophenyl)-N-(1H-indazol-5-yl)-5-methyl-2-(morpholine-4-carbonyl)-4,7-dihydropyrazolo[1,5-a]pyrimidine-6-carboxamide] |
| > 500 nM | > 500 nM | CC1=C(C(=O)Nc2ccc3[nH]ncc3c2)C(c2ccc(F)cc2)n2ncc(C(=O)N3CCN(C)CC3)c2N1 (centres unmarked) [Example 91, 7-(4-fluorophenyl)-N-(1H-indazol-5-yl)-5-methyl-3-(4-methylpiperazine-1-carbonyl)-4,7-dihydropyrazolo[1,5-a]pyrimidine-6-carboxamide] |
| > 500 nM | > 500 nM | CC1=C(C(=O)Nc2ccc3[nH]ncc3c2)C(c2ccc(F)cc2)n2ncc(C(=O)NCCN(C)C)c2N1 (centres unmarked) [Example 92, N3-(2-(dimethylamino)ethyl)-7-(4-fluorophenyl)-N6-(1H-indazol-5-yl)-5-methyl-4,7-dihydropyrazolo[1,5-a]pyrimidine-3,6-dicarboxamide] |
| < 50 nM | < 50 nM | CC1=C(C(=O)Nc2ccc3[nH]ncc3c2)C(c2ccc(F)cc2)n2nc(C(=O)N3CCNCC3)cc2N1 (centres unmarked) [Example 93, 7-(4-fluorophenyl)-N-(1H-indazol-5-yl)-5-methyl-2-(piperazine-1-carbonyl)-4,7-dihydropyrazolo[1,5-a]pyrimidine-6-carboxamide] |
| < 50 nM | < 50 nM | CC1=C(C(=O)Nc2ccc3cnccc3c2)C(c2ccc(C(F)(F)F)c(F)c2)n2nc(CN3CCOCC3)cc2N1 (centres unmarked) [Example 95, 7-(3-fluoro-4-(trifluoromethyl)phenyl)-N-(isoquinolin-6-yl)-5-methyl-2-(morpholinomethyl)-4,7-dihydropyrazolo[1,5-a]pyrimidine-6-carboxamide] |
